Values quoted from earlier work as cited in patent US20160120848A1, “SPECIFIC CANCER TREATMENT REGIMES WITH GANETESPIB” (SYNTA PHARMACEUTICALS CORP., priority 2013, published 2016).

Experiments:
FLT3 with Hsp90 = settings: cited from earlier work
[1] = test system: leukemia cells that express either wild type FLT3 or FLT3-ITD mutations; settings: cells expressing wild type FLT3 or FLT3-ITD mutations; cited from earlier work
Kasumi-1 cells = settings: Kasumi-1, acute myeloid leukemia cell line with c-Kit mutation; cited from earlier work

C=CCNC1=C2C[C@@H](C)C[C@H](OC)[C@H](O)[C@@H](C)/C=C(\C)[C@H](OC(N)=O)[C@@H](OC)/C=C\C=C(/C)C(=O)NC(=CC1=O)C2=O [17AAG]
effect on association of FLT3 with Hsp90 (FLT3 with Hsp90): disrupt the association of FLT3 with Hsp90
growth of leukemia cells [1]: inhibited
apoptosis (Kasumi-1 cells): induce apoptosis
